Data on 2 molecules can be found in publication PMC6060094, “Structural determinants of the catalytic mechanism of Plasmodium CCT, a key enzyme of malaria lipid biosynthesis” (Scientific Reports, 2018).

For experiment [1], the target named is T1, PfCCT(528–795) Y626F/Q636A (Plasmodium falciparum, UniProt Q8IEE9, DEL720-737/Q636A/Y626F). The experiment in a line: Continuous coupled colorimetric enzyme activity assay (PPase/PNP/MESG). Type of experiment: biochemical. Conditions: ChoP varied 0.5–20 mM, CTP fixed 1 mM; read-out: KM,ChoP. As for the experimental part:
(§1) Enzyme activity measurements were performed as described previously, using a continuous coupled colorimetric assay with pyrophosphatase (PPase), purine nucleoside phosphorylase (PNP) auxiliary enzymes and the auxiliary substrate 7-methyl-6-thioguanosine (MESG)[16],[30],[39]. For CTP substrate titrations, CTP concentration was varied between 100 μM and 2 mM while ChoP concentration was kept constant at 5 mM. For ChoP titrations, ChoP concentration was varied between 0.5 mM and 20 mM while CTP concentration was kept constant at 1 mM. Initial velocities were calculated from the first 10% of the progress curves using phosphate calibration as reference. Due to the low activity of PfCCT(581–775) and PfCCT(528–795) T761A, T762A variants, the enzyme was used at 10 μM concentration and the slope of the absorbance change was determined after monitoring the reaction for 20 minutes. For measurements with PfCCT(528–795) K663A the following reagent concentrations were used in the enzyme assay: [PPase] = 0.17 U·ml^−1, [PNP] = 1.25 U·ml^−1, [MESG] = 0.1 mM, [Mg^2+] = 5 mM and [PfCCT(528–795) K663A] = 10 μM, to yield adequate signal-to-noise ratio (S/N > 10). Three independent experiments were performed for CTP and ChoP kinetic titrations of PfCCT(528–795) K663A. Global fit of CTP and ChoP kinetic titrations for each enzyme variant was performed in Origin 8.6 using Michaelis–Menten equation, to yield a single kcat parameter.

Another experiment concerns PfCCT(528–795) T761A. The description is as above. It is filed as biochemical, Plasmodium falciparum. Conditions: ChoP varied 0.5–20 mM, CTP fixed 1 mM; read-out: KM,ChoP. As for the experimental part:
as §1

A further experiment deals with PfCCT(528–795) T762A. The description is as above. Type of experiment: biochemical, Plasmodium falciparum. Conditions: ChoP varied 0.5–20 mM, CTP fixed 1 mM; read-out: KM,ChoP. As for the experimental part:
as §1

In experiment [2] the target is T2, PfCCT(581–775) (Plasmodium falciparum, UniProt P49587, DEL194-211).
T2 construct: The PfCCT(581–775) construct was obtained using previously described PfCCT(528–795); 6xHis (TEV-cleavable) (N, cleaved yes); made in house; host or cells: E. coli BL21 (DE3)
The experiment in a line: Saturation Transfer Difference NMR (STD-NMR) ligand binding. Conditions: 50 µM PfCCT(581-775), 283 K. As for the experimental part: In order to provide structural insights into the mechanism of action of PfCCT, we set out to crystallize the constitutively active C-terminal catalytic domain of PfCCT. Several constructs were tested and our attempts were successful only in case of PfCCT(581–775) that corresponds to the exact region visible in the crystal structure of RnCCT (PDB: 3HL4)[20] (Fig. 1a). […] (Table 1 and Supplementary Fig. S1). We further assessed the functionality of PfCCT(581–775) by characterizing its substrate and product binding ability. […] Saturation Transfer Difference Nuclear Magnetic Resonance (STD-NMR) experiments indicated STD signal of CTP, ChoP and CDPCho bound to PfCCT(581–775) at 1 mM, 4 mM and 1 mM concentrations, respectively (Supplementary Fig. S1). This latter result is consistent with previously observed unusually low ChoP affinity of PfCCT[16]. We concluded that PfCCT(581–775) is compatible with substrate and product recognition and may be amenable to structural studies provided that its compromised enzymatic function is taken into account in structure-based interpretations. It is likely that the drop of PfCCT(581–775) enzyme activity is due to the elimination of the C-terminal flanking part as similarly located truncations in the RnCCT catalytic domain also led to severe loss of activity[28],[29]. […]
Kinetic data are fitted with the Michaelis–Menten equation. […] Values of the measured kinetic and thermodynamic parameters and their errors […]
(black) of 50 µM PfCCT(581-775) in 20 mM Tris/HCl pH 7.5, 150 mM NaCl and 2 mM EtSH are shown in presence of c) 1 mM CTP, d) 4 mM ChoP and e) 1 mM CDPCho. […] The 1D 1H STD-NMR spectra were recorded on a Bruker 500 MHz instrument at 283 K with 256 scans and selective saturation of protein resonances at 0.922 ppm using a series of Gaussian shaped pulses (20 ms, 1 ms delay between the pulses). […] All 1D 1H NMR spectra were recorded […]

For experiment [3], the target named is T3, PfCCT(528–795) (Plasmodium falciparum, UniProt P49587, DEL194-211).
T3 construct: previously described PfCCT(528–795) lacking the lysine-rich Plasmodium specific loop (720–737); His-tag; made in house
Also noted: method as in Nagy et al.[16]. Conditions: ref Nagy et al.[16]; read-out: KM,ChoP; cited from earlier work.

The target in experiment [4] is T3, PfCCT(528–795). The experiment in a line: Equilibrium ligand binding by isothermal titration calorimetry (ITC). Conditions: 20 °C. As for the experimental part:
(§2) Calorimetric measurements were performed on an ITC 200 titration calorimeter (Malvern) at 20 °C. The protein samples were dialyzed against 20 mM HEPES/NaOH pH 7.5, 100 mM NaCl, including 0.5 mM Tris(2-carboxyethyl)phosphine (TCEP) as reducing agent. CTP and CDPCho were diluted from a concentrated stock into the dialysis buffer with subsequent pH adjustment. Concentration of the titrating nucleotide ligands were determined using molar extinction coefficients 9000 M^−1 cm^−1 at 271 nm for CTP and 5000 M^−1 cm^−1 at 260 nm for CDPCho[16]. In the experimental setup, the cell of the instrument was filled with protein and the syringe with the ligand. The titrations typically included 19 steps of injection with 2 μl of ligand per injection spaced 180 s apart from each other, with the injection syringe rotating at 750 r.p.m. The data were analyzed using MICROCAL ORIGIN software following the directions of the manufacturer. To account for dilution, the invariant integrated heat value of the last 3–5 data points was subtracted from all data points. The one set of independent sites binding model was applied to data for determination of thermodynamic parameters: dissociation constant (Kd), stoichiometry (N), enthalpy (ΔH) and entropy (ΔS). Due to the low apparent affinity, the N value was fixed to a constant value of 1 in CTP titrations to PfCCT(528–795) K663A according to the low c value ITC data analysis protocol[40],[41]. For CTP and CDPCho titrations of PfCCT(528–795) K663A, and CTP titrations of T761A and T762A variants of PfCCT(528-795), mean and SD from two independent experiments are provided, whereas for CDPCho titrations of PfCCT(581–775) and PfCCT(528-795) mean and SD from three independent experiments are provided. For PfCCT(528-795) (Y626F/Q636A), errors of model fit to data of a single ligand binding experiment are given.

A further experiment addresses PfCCT(528–795) K663A (Plasmodium falciparum, UniProt Q8IEE9, DEL720-737/K663A). The description is as above. Conditions: 20 °C. As for the experimental part:
as §2

For experiment [5], the target named is T1, PfCCT(528–795) Y626F/Q636A. The description is as above. Conditions: 20 °C, pH 7.5, single experiment, errors of model fit. As for the experimental part:
as §2

Experiment [6] has as its target T2, PfCCT(581–775). The experiment is described as above. Conditions: 20 °C. As for the experimental part:
as §2

PfCCT(528–795) K663A, sequence (Q8IEE9 528-795, stated change not applied): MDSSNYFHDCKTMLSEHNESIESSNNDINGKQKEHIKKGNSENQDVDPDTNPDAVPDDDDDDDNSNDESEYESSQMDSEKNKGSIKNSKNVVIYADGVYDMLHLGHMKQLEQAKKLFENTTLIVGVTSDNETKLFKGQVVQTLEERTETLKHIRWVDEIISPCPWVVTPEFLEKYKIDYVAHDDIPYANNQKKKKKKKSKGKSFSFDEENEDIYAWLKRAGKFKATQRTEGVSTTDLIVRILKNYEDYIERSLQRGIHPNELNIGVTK
T1 sequence (Q8IEE9 528-795, stated change not applied): as above

For `C[N+](C)(C)CCOP(=O)(O)O` [ChoP, phosphocholine], the Km in experiment [1] was 1600 µM; in the experiment with PfCCT(528–795) T761A, 3700 µM; in the experiment on PfCCT(528–795) T762A, 2100 µM; at PfCCT(528–795) [3], 1950 µM. The “STD-NMR signal of ligand bound to enzyme” value at PfCCT(581–775) [2] (ligand 4 mM) is recorded as “STD signal”.

In the case of `C[N+](C)(C)CCOP(=O)(O)OP(=O)([O-])OC[C@H]1O[C@@H](n2ccc(N)nc2=O)[C@H](O)[C@@H]1O` [CDPCho, CDP-choline], the ΔGCDP-Cho is -6.0 ± 0.2 kcal/mol at PfCCT(528–795) [4] (pH 7.5), -5.0 ± 1.4 kcal/mol on PfCCT(528–795) K663A (pH 7.5), -6.2 ± 0.1 kcal/mol in experiment [5] and -5.8 ± 0.1 kcal/mol at PfCCT(581–775) [6] (pH 7.5). Besides, the ΔHCDP-Cho at PfCCT(528–795) [4] (pH 7.5) was -16.1 ± 0.1 kcal/mol; at PfCCT(528–795) K663A (pH 7.5), -11.4 ± 1.5 kcal/mol; in [5] it was -12.0 ± 0.2 kcal/mol; at PfCCT(581–775) [6] (pH 7.5), -10.5 ± 0.3 kcal/mol. Moreover, the “−TΔSCDP-Cho” value at PfCCT(528–795) [4] (pH 7.5) was 10.1 ± 0.1 kcal/mol; at PfCCT(528–795) K663A (pH 7.5), 6.5 ± 1.6 kcal/mol; in experiment [5], 5.8 ± 0.1 kcal/mol; at PfCCT(581–775) [6] (pH 7.5) it was 4.7 ± 0.4 kcal/mol. Moreover, the Kd at PfCCT(528–795) [4] (pH 7.5, read-out: Kd,CDP-Cho) is 34 ± 1 µM; at PfCCT(528–795) K663A (pH 7.5, read-out: Kd,CDP-Cho), 210 ± 60 µM; in [5] (read-out: Kd,CDP-Cho), 22.2 ± 0.2 µM; on PfCCT(581–775) [6] (pH 7.5, read-out: Kd,CDP-Cho), 47 ± 5 µM. In addition, the “STD-NMR signal of ligand bound to enzyme” value at PfCCT(581–775) [2] (ligand 1 mM) is “STD signal”.
